From patent US4859663A, “Multiply substituted pyridine 1-oxide compounds which are useful in treating brain disorders” (Hoechst Aktiengesellschaft, priority 1985, dated 1989)
Like-named read-outs stand apart in the source and are kept apart here.

Key:
Acute toxicity (LD50) = details: in vivo, mouse, mortality within 7 days
Description: 2. Acute toxicity The standard method for the determination of the LD50 values or LD50 ranges via the mortality occurring in Naval Medical Research Institute mice within 7 days after a single intravenous (i.v.), intraperitoneal (i.p.) or oral (p.o.) administration was used.

anesthetized male rats = assay: EEG hypoxia-tolerance test (antihypoxic / cerebroprotective action); assay type: in vivo, rat; details: ip, read-out: % change in the EEG-RL (EEG hypoxia recovery latency period); for change in vivo at 25 mg/kg: 25 mg/kg i.p.
Protocol: The compounds according to the invention were tested for a cerebroprotective action towards damage caused by hypoxia by means of the EEG hypoxia-tolerance test (EEG: Electroencephalogram) comparing with the most important representatives of types of compounds which belong to the state of the art. In this method, anesthetized male rats with implanted EEG electrodes are subjected to progressive hypoxia by passing nitrogen into a chamber. […] The criterion used for assessment of an antihypoxic action is the EEG hypoxia recovery latency period (EEG-RL), which is defined as the time from the opening of the chamber after onset of EEG silence until the first signals appear again. […] The compounds according to the invention were administered intraperitoneally 15 minutes before the start of hypoxia. The group size was n =8.

[1] = system: naive mice of the male sex; assay: Scopolamine-induced retrograde amnesia in the passive avoidance test; assay type: in vivo, mouse; details: for minimal effective dose: read-out: minimal effective dose (MED) countering scopolamine
Protocol: (a) Effect on the scopolamine-induced retrograde amnesia in the passive avoidance test
The test arrangement comprises a light/dark box with an electrifiable mesh floor in the dark section. 90 minutes after administration of placebo and product, naive mice of the male sex are treated subcutaneously with scopolamine hydrobromide (3 mg/kg). The mice are placed in the light section of the box 5 minutes later. After transferring into the dark section they receive there an electric shock to the feet which produces an unpleasant sensation. 24 hours thereafter, each mouse is placed once in the light section of the test apparatus, and the residence time (max. 180 seconds) is measured. […] The significant action of a test substance is calculated, using a median test, by comparison with the control group. The minimal effective dose (MED) of a product is regarded as that which results in a significant action countering scopolamine.

rat = assay: Gamma-butyrolactone test on the rat (EEG); assay type: in vivo
Description: (b) Gamma-butyrolactone test on the rat
It is known from the literature (L.I. Wolfson et al., J. Neurochem. 29, 777 (1977)) that gamma-butyrolactone (GBL), inter alia, induces metabolic disturbances in the brain which can be followed by changes in the EEG. The compounds of the formula I are able to antagonize this action of GBL on the EEG.

[2] = rat, 15 minutes before hypoxia, n = 8, vs untreated control, shortening (negative) = protective
[3] = rat, 50 mg/kg i.p., 15 minutes before hypoxia, n = 8, vs untreated control, shortening (negative) = protective

Row | SMILES | change in vivo at 25 mg/kg (anesthetized male rats; [2]) | LD50 at 168 h (Acute toxicity (LD50); iv, single i.v. administration) | also measured
1 | Cc1cc(N2CCSCC2)c(C#N)c(C)n1 [3-Cyano-2,6-dimethyl-4-(4-thiomorpholinyl)pyridine, reference compound] |  |  | LD50 at 168 h (Acute toxicity (LD50); ip, single i.p. administration): 150 to 300 mg/kg
2 | c1ccc(Oc2cccnc2)cc1 [3-Phenoxypyridine, reference compound] | -14% |  | LD50 at 168 h (Acute toxicity (LD50); po, single p.o. administration): 400 to 630 mg/kg
3 | Cc1cc(N2CCSCC2)c(C#N)c(C)[n+]1[O-].Cl [Example 1, 3-Cyano-2,6-dimethyl-4-(4-thiomorpholinyl)pyridine 1-oxide hydrochloride] | -50% | 135 mg/kg | LD50 at 168 h (Acute toxicity (LD50); po, single p.o. administration): 1190 mg/kg; minimal effective dose ([1]; mouse, oral, 90 minutes before scopolamine 3 mg/kg s.c.): 25 mg/kg; effectiveness relative to piracetam (from MED) ([1]; mouse, oral, passive avoidance): four times as effective as piracetam; protective action against GBL-induced EEG changes (rat; 100 and 200 mg/kg i.p.): strong, dose-dependent protective action; protective action against GBL compared with piracetam (rat; i.p.): far exceeded that of the comparison product piracetam
4 | Cc1cc(N2CCOCC2)c([N+](=O)[O-])c(C)[n+]1[O-] [Example 5, 2,6-Dimethyl-4-(4-morpholinyl)-3-nitropyridine 1-oxide] | -16% | > 200 mg/kg | 
5 | Cc1cc(N2CCCNCC2)c([N+](=O)[O-])c(C)[n+]1[O-] [Example 11] |  | 200 mg/kg | change in vivo at 50 mg/kg (anesthetized male rats; Rattus norvegicus): -23%
6 | Cc1cc(N2CCCC2)c(C#N)c(C)[n+]1[O-] [Example 13] |  | 200 mg/kg | change in vivo at 50 mg/kg (anesthetized male rats; [3]): -32%
7 | Cc1cc(N2CCCCC2)c(C#N)c(C)[n+]1[O-] [Example 14] |  | 100 to 200 mg/kg | change in vivo at 50 mg/kg (anesthetized male rats; [3]): -44%
8 | Cc1cc(N2CCCCCC2)c(C#N)c(C)[n+]1[O-] [Example 22] | -38% | 50 to 100 mg/kg | 
9 | Cc1cc(N2CCN(c3ccc(F)cc3)CC2)c([N+](=O)[O-])c(C)[n+]1[O-] [Example 26] | -27% | 200 mg/kg | 
10 | Cc1cc(N2CCCCC2)c([N+](=O)[O-])c(C)[n+]1[O-] [Example 28] | -12% | 100 to 200 mg/kg | 
11 | COC(=O)c1c(C)nc(C)c(C#N)c1-c1ccccc1[N+](=O)[O-] [Methyl 3-cyano-2,6-dimethyl-4-(2-nitrophenyl)pyridine-5-carboxylate, reference compound] |  | 50 to 100 mg/kg | change in vivo at 50 mg/kg (anesthetized male rats; [3]): 16%
12 | NC(=O)CN1CCCC1=O [piracetam, 2-oxo-1-pyrrolidineacetamide, reference compound] |  |  | minimal effective dose ([1]; Mus musculus, po): 100 mg/kg
